Assay results published in patent publication US20260378560A1, “APPROACHES TO DESIGNING AND PERFORMING COMPRESSED BIOLOGICAL EXPERIMENTS AND SYSTEMS FOR IMPLEMENTING THE SAME” (EXVIVO LABS INC., priority 2023, published 2026).

Columns and labels:
MOLT-4 = assay: ATP-based luminescence cell viability (CellTiter Glo), drug response score, MOLT-4
JURKAT = assay: ATP-based luminescence cell viability (CellTiter Glo), drug response score, JURKAT; conditions: screened individually (Compress: None)
[1] = MOLT-4, Sample compression, 5 Pick 3 pools
[2] = MOLT-4, Target compression, 5 Pick 3 pools
[3] = MOLT-4, Target compression, 6 Pick 3 pools
[4] = MOLT-4, Target compression, 7 Pick 3 pools

Row | Structure (SMILES) | DRS from deconvolution (MOLT-4; [1]) | DRS from deconvolution (MOLT-4; [2]) | DRS from deconvolution (MOLT-4; [3]) | DRS from deconvolution (MOLT-4; [4]) | drug response score (DRS) (JURKAT)
1 | N#Cc1ccnc(N2C(=O)CC[C@H]2C(=O)N(c2cncc(F)c2)[C@H](C(=O)NC2CC(F)(F)C2)c2ccccc2Cl)c1 [Ivosidenib] | 0.06 | 0.21 | 0.30 | 0.22 | 0.70
2 | CC1(C)CCC(CN2CCN(c3ccc(C(=O)NS(=O)(=O)c4ccc(NCC5CCOCC5)c([N+](=O)[O-])c4)c(Oc4cnc5[nH]ccc5c4)c3)CC2)=C(c2ccc(Cl)cc2)C1 [Venetoclax] | 1.26 | 0.87 | 2.79 | 2.98 | 0.00
3 | Cc1[nH]c2ccccc2c1CCNCc1ccc(/C=C/C(=O)NO)cc1 [Panobinostat] | 14.56 | 15.32 | 15.84 | 14.94 | 13.20
4 | COc1c(OCCCN2CCOCC2)ccc2c1N=C(NC(=O)c1cnc(N)nc1)N1CCN=C21 [Copanlisib] | 12.24 | 11.02 | 8.72 | 9.83 | 1.34
